The text below walks through data of PMC10028261, “Structural and ligand binding analysis of the pet allergens Can f 1 and Fel d 7” (Frontiers in Allergy, 2023).

A value given as a limit tells only on which side of the number the result lay.

Common to all, as to assay type: binding
The target in assay [1] is T1, Fel d 7 (Felis catus, UniProt E5D2Z5).
T1 construct: wild-type, signal peptide absent, aa 27-170 for the crystal construct; GST tag cut with TEV; E. coli BL21(DE3)
Kind of assay: ANS displacement assay. The conditions noted are these: 2 uM ANS, 0.2 mg/ml protein, RT, 1 h; fatty acid 10 uM (Methods) or 1 uM (Figure 4 legend).

The target of assay [2] is T2, Can f 1 (Canis lupus, UniProt O18873).
T2 construct: wild-type (C118S gene reverted to Cys118), signal peptide absent, borders aa 27-171 for the C118S crystal construct; 6His-GST tag cut with TEV; E. coli BL21(DE3)
Nature of the assay: ANS displacement assay. The conditions noted are these: 2 uM ANS, 0.2 mg/ml protein, RT, 1 h; fatty acid 10 uM (Methods) or 1 uM (Figure 4 legend).

In assay [3] the target is T2, Can f 1. Nature of the assay: […]-methyl HSQC NMR stoichiometry. The conditions noted are these: labelled compound (methyl-13C-oleate); annealed at 80°C, excess lipid removed, PBS; cholate extraction.
In assay [4] the target is T1, Fel d 7. Nature of the assay: […]-methyl HSQC NMR stoichiometry. The conditions noted are these: labelled compound (methyl-13C-oleate); annealed at 80°C, excess lipid removed, PBS; cholate extraction.

T2 sequence (O18873 27-171): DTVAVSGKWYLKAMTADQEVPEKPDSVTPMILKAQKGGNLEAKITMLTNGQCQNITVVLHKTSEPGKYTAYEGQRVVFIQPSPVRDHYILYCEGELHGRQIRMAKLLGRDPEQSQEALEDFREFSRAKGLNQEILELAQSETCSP
T1 sequence (E5D2Z5 27-170): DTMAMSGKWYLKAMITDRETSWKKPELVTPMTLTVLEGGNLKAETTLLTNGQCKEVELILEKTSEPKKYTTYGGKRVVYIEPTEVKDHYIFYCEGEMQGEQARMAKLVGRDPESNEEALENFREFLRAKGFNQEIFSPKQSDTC

Regarding `CC/C=C\C/C=C\C/C=C\CCCCCCCC(=O)N[C@@H](Cc1ccc(O)cc1)C(=O)O` [A2, N-(α-Linolenoyl) tyrosine], the “% fluorescence reduction” value at Fel d 7 [1] and at Can f 1 [2] was > 50% in each case.

Take `CCCCCCCC/C=C\CCCCCCCC(=O)N[C@@H](CO)C(=O)O` [A4, N-Oleoyl-L-serine]: the “% fluorescence reduction” value on Fel d 7 [1] and on Can f 1 [2] was > 50% in each case.

For `CCCCC/C=C\C/C=C\CCCCCCCC(=O)NCC(=O)O` [D10, Linoleoyl glycine], the “% fluorescence reduction” value on Fel d 7 [1] and on Can f 1 [2] was > 50% throughout.

With `CCCCCCCC/C=C\CCCCCCCC(=O)O` [oleic acid], the “stoichiometry (oleate:protein)” value at Can f 1 [3] and at Fel d 7 [4] was 2:1 throughout.
